Measurements taken from the supplement of paper PMC11451515.

Tested on: NOMO1
Test: cell viability relative to DMSO control; higher = less cytotoxic
Settings: 48 h
Method in brief: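 Before seeding, each leukemia line was adapted for at least four passages in each medium. NOMO1 or SEM cells (500 cells/well) and P12-Ichikawa cells (1000 cells/well) went into 1536-well plates at 5 μl, then received library compounds in DMSO by pin dosing across 11 threefold concentrations, 47 μM to 0.79 nM. Readout was CellTiter-Glo One luminescence after 48 h at 37°C, and viability is given as a per-plate percentage of DMSO wells, with cell-free wells as background.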

[1] = HPLM + 10% dialyzed FBS, 0.000781 µM
[2] = HPLM + 10% dialyzed FBS, 0.00234 µM
[3] = HPLM + 10% dialyzed FBS, 0.00702 µM
[4] = HPLM + 10% dialyzed FBS, 0.0211 µM
[5] = HPLM + 10% dialyzed FBS, 0.0632 µM
[6] = HPLM + 10% dialyzed FBS, 0.19 µM
[7] = HPLM + 10% dialyzed FBS, 0.569 µM
[8] = HPLM + 10% dialyzed FBS, 1.71 µM
[9] = HPLM + 10% dialyzed FBS, 5.12 µM
[10] = HPLM + 10% dialyzed FBS, 15.4 µM
[11] = HPLM + 10% dialyzed FBS, 46.1 µM
[12] = RPMI 5 mM glucose + 10% FBS, 0.000781 µM
[13] = RPMI 5 mM glucose + 10% FBS, 0.00234 µM
[14] = RPMI 5 mM glucose + 10% FBS, 0.00702 µM
[15] = RPMI 5 mM glucose + 10% FBS, 0.0211 µM
[16] = RPMI 5 mM glucose + 10% FBS, 0.0632 µM
[17] = RPMI 5 mM glucose + 10% FBS, 0.19 µM
[18] = RPMI 5 mM glucose + 10% FBS, 0.569 µM
[19] = RPMI 5 mM glucose + 10% FBS, 1.71 µM
[20] = RPMI 5 mM glucose + 10% FBS, 5.12 µM
[21] = RPMI 5 mM glucose + 10% FBS, 15.4 µM
[22] = RPMI 5 mM glucose + 10% FBS, 46.1 µM
[23] = RPMI 5 mM glucose + 10% dialyzed FBS, 0.000781 µM
[24] = RPMI 5 mM glucose + 10% dialyzed FBS, 0.00234 µM
[25] = RPMI 5 mM glucose + 10% dialyzed FBS, 0.00702 µM
[26] = RPMI 5 mM glucose + 10% dialyzed FBS, 0.0211 µM
[27] = RPMI 5 mM glucose + 10% dialyzed FBS, 0.0632 µM
[28] = RPMI 5 mM glucose + 10% dialyzed FBS, 0.19 µM
[29] = RPMI 5 mM glucose + 10% dialyzed FBS, 0.569 µM
[30] = RPMI 5 mM glucose + 10% dialyzed FBS, 1.71 µM
[31] = RPMI 5 mM glucose + 10% dialyzed FBS, 5.12 µM
[32] = RPMI 5 mM glucose + 10% dialyzed FBS, 15.4 µM
[33] = RPMI 5 mM glucose + 10% dialyzed FBS, 46.1 µM

With `CC(C)(Sc1cc(C(C)(C)C)c(O)c(C(C)(C)C)c1)Sc1cc(C(C)(C)C)c(O)c(C(C)(C)C)c1` the cell viability [1] was 88.5%, the cell viability [2] was 92.3% and the cell viability [3] was 85.6%. The cell viability [4] was 105%, the cell viability [5] was 108% and the cell viability [6] was 90.4%. It also gave a cell viability [7] of 96.2%, a cell viability [8] of 94.3% and a cell viability [9] of 79.1%. For the same compound, the cell viability [10] was 103%, the cell viability [11] was 91.6% and the cell viability [12] was 84.4%. It also gave a cell viability [13] of 92.5%, a cell viability [14] of 86.2% and a cell viability [15] of 91.3%. For the same compound, the cell viability [16] was 86.4%, the cell viability [17] was 98.4% and the cell viability [18] was 92.8%. It also gave a cell viability [19] of 84.8%, a cell viability [20] of 92.7% and a cell viability [21] of 93%. The cell viability [22] was 84.8%, the cell viability [23] was 79.7% and the cell viability [24] was 88.3%. For the same compound, the cell viability [25] was 94.6%, the cell viability [26] was 83.7% and the cell viability [27] was 98.9%. For the same compound, the cell viability [28] was 105%, the cell viability [29] was 95.5% and the cell viability [30] was 94.5%. For the same compound, the cell viability [31] was 81.4%, the cell viability [32] was 90.2% and the cell viability [33] was 94%.

`Cc1cccc(-c2[nH]c(C(C)(C)C)nc2-c2ccc3nccnc3c2)n1` gave a cell viability [1] of 113%, a cell viability [2] of 135% and a cell viability [3] of 110%. It also gave a cell viability [4] of 117%, a cell viability [5] of 111% and a cell viability [6] of 133%. For the same compound, the cell viability [7] was 123%, the cell viability [8] was 128% and the cell viability [9] was 112%. For the same compound, the cell viability [10] was 114%, the cell viability [11] was 47% and the cell viability [12] was 133%. It also gave a cell viability [13] of 121%, a cell viability [14] of 117% and a cell viability [15] of 124%. It also gave a cell viability [16] of 123%, a cell viability [17] of 98.2% and a cell viability [18] of 124%. The cell viability [19] was 106%, the cell viability [20] was 106% and the cell viability [21] was 114%. The cell viability [22] was 96.6%, the cell viability [23] was 119% and the cell viability [24] was 112%. For the same compound, the cell viability [25] was 122%, the cell viability [26] was 108% and the cell viability [27] was 113%. For the same compound, the cell viability [28] was 119%, the cell viability [29] was 120% and the cell viability [30] was 118%. For the same compound, the cell viability [31] was 112%, the cell viability [32] was 98.2% and the cell viability [33] was 51.4%.

`CO[C@H]1C[C@@H]2CC[C@@H](C)[C@@](O)(O2)C(=O)C(=O)N2CCCC[C@H]2C(=O)O[C@H]([C@@H](C)C[C@@H]2CC[C@@H](O)[C@H](OC)C2)CC(=O)[C@H](C)/C=C(\C)[C@@H](O)[C@@H](OC)C(=O)[C@H](C)C[C@H](C)/C=C/C=C/C=C/1C` gave a cell viability [1] of 106%, a cell viability [2] of 110% and a cell viability [3] of 112%. The cell viability [4] was 91%, the cell viability [5] was 95.3% and the cell viability [6] was 112%. It also gave a cell viability [7] of 103%, a cell viability [8] of 104% and a cell viability [9] of 81.6%. It also gave a cell viability [10] of 88.7%, a cell viability [11] of 81.5% and a cell viability [12] of 113%. It also gave a cell viability [13] of 116%, a cell viability [14] of 128% and a cell viability [15] of 136%. The cell viability [16] was 136%, the cell viability [17] was 109% and the cell viability [18] was 113%. The cell viability [19] was 118%, the cell viability [20] was 97.3% and the cell viability [21] was 111%. For the same compound, the cell viability [22] was 103%, the cell viability [23] was 112% and the cell viability [24] was 116%. It also gave a cell viability [25] of 121%, a cell viability [26] of 106% and a cell viability [27] of 108%. It also gave a cell viability [28] of 117%, a cell viability [29] of 111% and a cell viability [30] of 115%. It also gave a cell viability [31] of 128%, a cell viability [32] of 105% and a cell viability [33] of 99.9%.

`CCc1nc(N)nc(N)c1-c1ccc(Cl)cc1` showed a cell viability [1] of 78.8%, a cell viability [2] of 118% and a cell viability [3] of 93.3%. It also gave a cell viability [4] of 92.8%, a cell viability [5] of 105% and a cell viability [6] of 108%. It also gave a cell viability [7] of 96.1%, a cell viability [8] of 47.7% and a cell viability [9] of 48%. The cell viability [10] was 44.6%, the cell viability [11] was 38.7% and the cell viability [12] was 81.1%. For the same compound, the cell viability [13] was 99.5%, the cell viability [14] was 84.8% and the cell viability [15] was 83.7%. For the same compound, the cell viability [16] was 86.1%, the cell viability [17] was 86.4% and the cell viability [18] was 90.6%. For the same compound, the cell viability [19] was 90.5%, the cell viability [20] was 89.9% and the cell viability [21] was 89.1%. For the same compound, the cell viability [22] was 89.6%, the cell viability [23] was 84% and the cell viability [24] was 94.3%. For the same compound, the cell viability [25] was 90.3%, the cell viability [26] was 100% and the cell viability [27] was 106%. It also gave a cell viability [28] of 104%, a cell viability [29] of 96.8% and a cell viability [30] of 104%. For the same compound, the cell viability [31] was 90.2%, the cell viability [32] was 56.3% and the cell viability [33] was 35.3%.
